{
  "source": "patent US8623409B1",
  "about": "“Clonidine formulation” (Tris Pharma Inc., priority 2010, dated 2014)",
  "origin": "cited, not measured here",
  "conditions": "plasma level; see US patent application 2008/0152709",
  "data": [
    {"smiles": "Clc1cccc(Cl)c1NC1=NCCN1", "note": "[clonidine, N-(2,6-dichlorophenyl)-4,5-dihydro-1H-imidazol-2-amine]", "values": [
      {"measurement": "minimum effective dose for clonidine use as an anti-hypertensive agent", "result": 200, "unit": "pg/mL"}
    ]}
  ]
}
